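Method: 48-hour compound exposure of cells in 96-well plates, five concentrations, linear interpolation of endpoints. TGI is the concentration that stops growth completely.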
Tests used:
Assay in all cases: NCI tumour cell line growth inhibition, 48 h
UO-31 renal = test system: UO-31 renal
ACHN renal = test system: ACHN renal
SF-295 CNS = test system: SF-295 CNS
UACC-257 melanoma = test system: UACC-257 melanoma
U251 CNS = test system: U251 CNS
SW-620 colon = test system: SW-620 colon
T-47D breast = test system: T-47D breast
A549 NSCLC = test system: A549 NSCLC
TK-10 renal = test system: TK-10 renal
786-0 renal = test system: 786-0 renal
OVCAR-8 ovarian = test system: OVCAR-8 ovarian
MDA-MB-231 breast = test system: MDA-MB-231 breast
SF-539 CNS = test system: SF-539 CNS
SN12C renal = test system: SN12C renal
DU-145 prostate = test system: DU-145 prostate
RXF 393 renal = test system: RXF 393 renal
MOLT-4 leukemia = test system: MOLT-4 leukemia
OVCAR-3 ovarian = test system: OVCAR-3 ovarian
KM12 colon = test system: KM12 colon
RPMI-8226 leukemia = test system: RPMI-8226 leukemia
A498 renal = test system: A498 renal
HL-60(TB) leukemia = test system: HL-60(TB) leukemia
COLO 205 colon = test system: COLO 205 colon
MDA-MB-435 = test system: MDA-MB-435
MDA-N = test system: MDA-N
SNB-19 CNS = test system: SNB-19 CNS
K-562 leukemia = test system: K-562 leukemia
SR leukemia = test system: SR leukemia
HOP-62 NSCLC = test system: HOP-62 NSCLC
LOX IMVI melanoma = test system: LOX IMVI melanoma
BT-549 breast = test system: BT-549 breast
NCI-H23 lung = test system: NCI-H23 lung
HS 578T breast = test system: HS 578T breast
SF-268 CNS = test system: SF-268 CNS
M14 melanoma = test system: M14 melanoma
SK-MEL-5 melanoma = test system: SK-MEL-5 melanoma
CCRF-CEM leukemia = test system: CCRF-CEM leukemia
EKVX NSCLC = test system: EKVX NSCLC
OVCAR-5 ovarian = test system: OVCAR-5 ovarian
UACC-62 melanoma = test system: UACC-62 melanoma
HCT-15 colon = test system: HCT-15 colon
HOP-92 NSCLC = test system: HOP-92 NSCLC
PC-3 prostate = test system: PC-3 prostate
MCF7 breast = test system: MCF7 breast
IGROV1 ovarian = test system: IGROV1 ovarian
SK-MEL-2 melanoma = test system: SK-MEL-2 melanoma
HCT-116 colon = test system: HCT-116 colon
CAKI-1 renal = test system: CAKI-1 renal
NCI-H460 lung = test system: NCI-H460 lung
NCI/ADR-RES ovarian = test system: NCI/ADR-RES ovarian
MALME-3M melanoma = test system: MALME-3M melanoma
SK-OV-3 ovarian = test system: SK-OV-3 ovarian
NCI-H522 lung = test system: NCI-H522 lung

Compound: COc1ccc(/C=C/C(=O)C(C)(C)Br)cc1
- TGI (UO-31 renal): 16.6 µM
- TGI (ACHN renal): 25.7 µM
- TGI (SF-295 CNS): 43.9 µM
- TGI (UACC-257 melanoma): 30.2 µM
- TGI (U251 CNS): 28.6 µM
- TGI (SW-620 colon): 5.37 µM
- TGI (T-47D breast): 76.2 µM
- TGI (A549 NSCLC): 63.9 µM
- TGI (TK-10 renal): 29.7 µM
- TGI (786-0 renal): 23.7 µM
- TGI (OVCAR-8 ovarian): 11.5 µM
- TGI (MDA-MB-231 breast): 63.1 µM
- TGI (SF-539 CNS): 32.2 µM
- TGI (SN12C renal): 19.6 µM
- TGI (DU-145 prostate): 37.2 µM
- TGI (RXF 393 renal): 6.09 µM
- TGI (MOLT-4 leukemia): 18.9 µM
- TGI (OVCAR-3 ovarian): 35 µM
- TGI (KM12 colon): 55.1 µM
- TGI (RPMI-8226 leukemia): 14.6 µM
- TGI (A498 renal): 37.1 µM
- TGI (HL-60(TB) leukemia): 69.2 µM
- TGI (COLO 205 colon): 29.5 µM
- TGI (MDA-MB-435): 34.3 µM
- TGI (MDA-N): 39.4 µM
- TGI (SNB-19 CNS): 88.7 µM
- TGI (K-562 leukemia): > 100 µM
- TGI (SR leukemia): 13.6 µM
- TGI (HOP-62 NSCLC): 25.3 µM
- TGI (LOX IMVI melanoma): 23.3 µM
- TGI (BT-549 breast): 7.06 µM
- TGI (NCI-H23 lung): 6.04 µM
- TGI (HS 578T breast): 37.8 µM
- TGI (SF-268 CNS): 34.7 µM
- TGI (M14 melanoma): 3.79 µM
- TGI (SK-MEL-5 melanoma): 31.4 µM
- TGI (CCRF-CEM leukemia): 5.22 µM
- TGI (EKVX NSCLC): 31.7 µM
- TGI (OVCAR-5 ovarian): 28.1 µM
- TGI (UACC-62 melanoma): 27.1 µM
- TGI (HCT-15 colon): 7.69 µM
- TGI (HOP-92 NSCLC): 27.9 µM
- TGI (PC-3 prostate): 36.9 µM
- TGI (MCF7 breast): 19.1 µM
- TGI (IGROV1 ovarian): 5.76 µM
- TGI (SK-MEL-2 melanoma): 27.5 µM
- TGI (HCT-116 colon): 9.83 µM
- TGI (CAKI-1 renal): 35.7 µM
- TGI (NCI-H460 lung): 48 µM
- TGI (NCI/ADR-RES ovarian): > 100 µM
- TGI (MALME-3M melanoma): 32 µM
- TGI (SK-OV-3 ovarian): 63.1 µM
- TGI (NCI-H522 lung): 2.92 µM
